According to US4563527A, “Amidine compounds” (Torii & Co., Ltd., priority 1984, dated 1986):

Tested on: complement
Assay: Inhibition of complement mediated hemolysis
Format: cell-based
Experimental: The complement mediated hemolysis is widely used as a means to determine the titration of complement. The principle of this method is based on the fact that hemolysis is caused by the activation of complement, when the latter is added to a complex (immune complex) of erythrocytes and the antibody thereof. The degree of hemolysis varies in proportion to the amount of complement added. Therefore, when a known amount of complement admixed with a C1 esterase inhibitor is used, the hemolysis must be suppressed in proportion to the inhibitory activity.
The anti-C1 esterase (C1r, C1s) activity was determined according to the method of Okamura et al. [K. Okamura, M. Muramatsu and B. Fujii, Biochem. Biophys. […] The figures in Table 2 have the following meanings: […]

`N=C(N)c1ccc2cc(OC(=O)c3ccc(CNC(=O)CCNC(=O)OCc4ccccc4)o3)ccc2c1` [compound 20] was tested, and the “Inhibition of complement mediated hemolysis (%)” value (shortened to “Inhibition … (%)”) (1 × 10^-5) was 100%, the “Inhibition … (%)” value (1 × 10^-6) was 98% and the “Inhibition … (%)” value (1 × 10^-7) was 43%.
